# Measurements published in paper PMC4257840 (Journal of Medicinal Chemistry, 2014).
# Columns and labels:
# Type in all cases: biochemical
# [1] = target: T1, Human recombinant cathepsin L2 (Homo sapiens, UniProt O60911); assay: Protease counter-screening: Cathepsin L2
# T1 construct: host or cells: NS0 cells
# Experimental: (§1) Appendix 7. Protease Counter -Screening
# (§2) Protease counter-screeni ng was performed using the methods described below. Initial screening was conducted in duplicate using a single test substance concentration of 10 µ M .
# (§3) Additional assays were conducted in replicate for selected pairin gs of test s ubstance and enz yme in order to enable the determination of IC50 values using conventional procedures.
# (§4) Determination of K i was made using the Batch K i program (Biokin Ltd, Pullman, WA) to derive values from the Morrison equation: […]
# (§5) Where [E ] is the active enz yme concentration, Kiapp is the apparent inhibition const ant, v 0 is the control velocit y in the absence of inhibitors, vb is the background velocity, v is the initial reaction velocit y in the presence of inhibitor, and I is the inhibitor concentration.Thence:
# (§6) Where [S ] is the substrate concentration and KM is the Michealis constant.
# Caspase 1: Activity against human recombinant caspase 1 expressed in E. coli was tested using Ac-YVAD- AMC as the substrate. Test compound or vehicle was pre- incubated with 600 […]
# followed by excitation/emission at 485/535 nm. […]
# (§7) AMC formation was read at 360 nm/465 nm.
# (§8) Cathepsin L2: Human recombinant cathepsin L2 expressed in NS0 cells was used as the enzyme source. […] Form ation of AMC was measured at 360 […]
# (§9) The amount of AMC formed was read spectrofluorimetricall y at 360 nm/465 nm. […]
# [2] = target: T2, human recombinant caspase 9 (Homo sapiens, UniProt P55211); assay: Protease counter-screening: Caspase 9
# T2 construct: host or cells: E. coli
# T2 sequence (P55211 1-315 limits assumed): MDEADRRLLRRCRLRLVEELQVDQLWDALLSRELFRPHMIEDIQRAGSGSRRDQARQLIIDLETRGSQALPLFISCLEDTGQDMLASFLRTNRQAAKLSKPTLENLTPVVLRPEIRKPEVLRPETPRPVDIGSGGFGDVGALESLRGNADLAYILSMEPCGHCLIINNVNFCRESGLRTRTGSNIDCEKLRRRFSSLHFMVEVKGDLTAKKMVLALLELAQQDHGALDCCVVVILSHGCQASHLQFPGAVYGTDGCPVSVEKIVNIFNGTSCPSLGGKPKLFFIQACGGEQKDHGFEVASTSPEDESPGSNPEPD
# T2 sequence (P55211 331-416 limits assumed): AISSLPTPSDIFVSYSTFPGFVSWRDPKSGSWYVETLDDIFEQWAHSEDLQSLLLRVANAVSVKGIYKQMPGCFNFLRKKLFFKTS
# Experimental: as §1, §2, §3, §4, §5
# Where [S ] is the substrate concentration and KM is the Michealis constant. […]
# by addition of 50 µM Ac-DEVD-AMC for another 60 min incubation period. The amount of AMC formed was determined fluorimetricall y (excitation 360 nm/emission 465 nm). […]
# by addition of 25 µM Ac-LEH D-A FC for another 60 min incubation period. The amount of amino-4- trifluorometh ylcoumarin (AFC) formed determined fluorimetrically (400nm/ 510nm).
# Cathepsin C: Cathepsin C from bovine spleen was used as the source of enz yme. […] T he amount of AMC product formed was read spectrofluorimetrically
# [3] = target: human recombinant procathepsin K (activated) (Homo sapiens, UniProt P43235); assay: Protease counter-screening: Cathepsin K
# human recombinant procathepsin K (activated), sequence (P43235 115-329): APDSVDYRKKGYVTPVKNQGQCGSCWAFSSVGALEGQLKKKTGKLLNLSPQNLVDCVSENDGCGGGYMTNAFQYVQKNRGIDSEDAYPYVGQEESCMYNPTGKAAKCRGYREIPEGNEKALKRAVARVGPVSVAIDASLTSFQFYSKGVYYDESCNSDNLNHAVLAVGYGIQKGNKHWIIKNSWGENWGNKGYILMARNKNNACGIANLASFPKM
# Experimental: as §1, §2, §3, §4, §5, §6
# Caspase 1: Activity against human recombinant caspase 1 expressed in E. coli was tested using Ac-YVAD- AMC as the substrate. […]
# The amount of MCA-P LG formed was measured spectrofluorimetricall y at 340 nm/400 nm. […]
# as §7, §8, §9
# T1 sequence (O60911 114-334): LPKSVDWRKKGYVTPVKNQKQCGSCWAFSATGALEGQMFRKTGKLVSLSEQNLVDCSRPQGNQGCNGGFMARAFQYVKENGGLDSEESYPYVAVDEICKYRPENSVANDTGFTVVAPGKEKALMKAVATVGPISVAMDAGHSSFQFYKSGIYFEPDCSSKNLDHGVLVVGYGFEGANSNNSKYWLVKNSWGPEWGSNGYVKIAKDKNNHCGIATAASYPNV
structure (smiles),measurement,setting,value
"CC(C)[C@H](NC(=O)[C@H](C)NC(=O)[C@@H](NC(=O)c1ccccc1)C(C)(C)C)C(=O)C(=O)NCc1ccccc1 [Compound 38, N-{(S)-1-[(S)-1-((S)-1-Benzylaminooxalyl-2-methyl-propylcarbamoyl)-ethylcarbamoyl]-2,2-dimethyl-propyl}-benzamide]",IC50,[1],3.53 µM
same,inhibition at 10 µM,[2],0%
same,IC50,[3],2920 nM
